# Source: patent US20260184697A1, “EZH1/2 INHIBITOR, PREPARATION THEREOF, AND USE THEREOF IN ANTI-TUMOR THERAPY” (JIANGSU TASLY DIYI PHARMACEUTICAL CO., LTD., priority 2022, published 2026)
# Biological target: T1, EZH2/SUZ/EED (Homo sapiens, UniProt O75530+Q15022+Q15910)
# T1 construct: purchased BPS 51003
# Experiment: Inhibitory effect on EZH2 by the MTase-Glo method (Test Example 1)
# Format: biochemical
# Conditions: EZH2/SUZ/EED 6.25 nM, H3 peptide 10 μM, SAM 3 μM, 30° C. 3 h, read-out: Test Example 1 WT EZH2 IC50
# Description: (§1) The compound was dissolved in DMSO, and the compound was serially diluted using ECHO665 and transferred to a 384-well reaction plate (Corning, 3824). A sample containing only DMSO was added as a positive control (maximum signal control) and a negative control (minimum signal control), while ensuring that the final DMSO content in each reaction well was 0.5%. The protein was configured in reaction buffer (50 mM Bicine, 0.01% Triton X-100, 1 mM DTT, 0.01% BSA, pH 7.6), such that the final reaction concentrations of EZH2/SUZ/EED (BPS, 51003) protein solution and EZH1/SUZ/EED (BPS, 51006) were 6.25 nM and 25 nM, respectively. The negative control (minimum signal control) used an equal amount of buffer instead of protein solution. The prepared protein solution was added to the 384-well reaction plate and pre-incubated at room temperature for 15 minutes. The mixture of the substrate H3 peptide fragment (custom-synthesized by GenScript, biotinylated Histone H3(21-44) peptide ([…]-GG-K(Biotin)-OH)) prepared in the reaction buffer and SAM (Promega, V7601) was added into the 384-well plate, such that the final reaction concentration of H3 peptide fragment was 10 μM, and the final concentration of SAM was 3 μM. The mixture was centrifuged at 1000 rpm for 1 min. The 384-well reaction plate was placed in a constant temperature shaker and incubate at 30° C. for 3 h at a speed of 300 rpm. Then the detection reagent was added according to the experimental process of the kit MTase-Glo (Promega, V7601) and incubated.
# (§2) After incubation, read with BMG PHERAStar. The luminescence signals obtained by positive control (maximum signal control) and negative control (minimum signal control) were normalized to obtain the inhibition rate of different concentrations of compounds. Then, the IC50 of the compound on the enzyme activity inhibition was calculated by GraphPad Prism 6 with log(inhibitor) vs. response-Variable slope model fitting. The fitting equation is: Y=Bottom+(Top−Bottom)/(1+10^((Log IC50−X)*HillSlope)), wherein Y represents the known percentage remaining enzyme activity, and X represents the known activity after Log compound concentration.
# T1 sequence (Q15910 2-746 limits assumed): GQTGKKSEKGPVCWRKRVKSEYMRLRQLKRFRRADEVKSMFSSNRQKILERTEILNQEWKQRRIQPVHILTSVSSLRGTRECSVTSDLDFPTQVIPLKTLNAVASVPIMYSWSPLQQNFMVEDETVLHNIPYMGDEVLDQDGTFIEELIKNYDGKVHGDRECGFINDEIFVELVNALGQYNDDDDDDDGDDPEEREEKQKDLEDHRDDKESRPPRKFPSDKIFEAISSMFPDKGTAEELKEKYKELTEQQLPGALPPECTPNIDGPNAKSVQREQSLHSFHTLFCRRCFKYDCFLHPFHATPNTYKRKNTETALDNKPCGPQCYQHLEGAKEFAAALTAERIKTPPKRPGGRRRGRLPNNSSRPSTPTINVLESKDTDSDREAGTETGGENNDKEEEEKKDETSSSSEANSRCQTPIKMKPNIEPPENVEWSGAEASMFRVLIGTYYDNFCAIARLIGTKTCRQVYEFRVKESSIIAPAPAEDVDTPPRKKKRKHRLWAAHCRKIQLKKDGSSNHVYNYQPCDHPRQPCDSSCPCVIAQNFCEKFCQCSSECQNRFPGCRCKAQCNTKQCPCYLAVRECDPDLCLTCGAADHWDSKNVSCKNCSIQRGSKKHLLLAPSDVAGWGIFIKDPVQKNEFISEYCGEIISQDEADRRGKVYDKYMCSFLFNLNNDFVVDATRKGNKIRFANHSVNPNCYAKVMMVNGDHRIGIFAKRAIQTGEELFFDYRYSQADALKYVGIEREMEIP
# T1 sequence (Q15022 2-739 partner limits assumed): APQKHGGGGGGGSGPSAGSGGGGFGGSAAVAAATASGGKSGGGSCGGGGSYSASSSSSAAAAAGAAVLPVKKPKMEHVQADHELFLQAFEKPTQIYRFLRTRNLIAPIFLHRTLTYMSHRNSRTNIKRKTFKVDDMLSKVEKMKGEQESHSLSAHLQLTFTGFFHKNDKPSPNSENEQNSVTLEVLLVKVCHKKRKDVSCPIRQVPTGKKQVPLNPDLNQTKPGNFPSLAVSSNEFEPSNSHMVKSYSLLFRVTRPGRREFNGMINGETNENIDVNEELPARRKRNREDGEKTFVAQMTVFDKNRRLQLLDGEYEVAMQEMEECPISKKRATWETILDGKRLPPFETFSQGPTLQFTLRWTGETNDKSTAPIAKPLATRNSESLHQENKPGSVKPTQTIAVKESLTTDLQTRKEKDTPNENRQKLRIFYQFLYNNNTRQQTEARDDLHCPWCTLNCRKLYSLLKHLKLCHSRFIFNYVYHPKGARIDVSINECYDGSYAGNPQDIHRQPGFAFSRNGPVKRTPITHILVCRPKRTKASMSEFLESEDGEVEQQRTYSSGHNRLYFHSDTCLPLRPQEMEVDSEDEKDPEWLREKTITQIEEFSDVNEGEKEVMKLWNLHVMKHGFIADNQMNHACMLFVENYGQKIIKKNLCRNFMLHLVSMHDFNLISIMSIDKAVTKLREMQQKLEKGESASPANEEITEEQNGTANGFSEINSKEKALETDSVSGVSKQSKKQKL
# T1 sequence (O75530 2-441 partner limits assumed): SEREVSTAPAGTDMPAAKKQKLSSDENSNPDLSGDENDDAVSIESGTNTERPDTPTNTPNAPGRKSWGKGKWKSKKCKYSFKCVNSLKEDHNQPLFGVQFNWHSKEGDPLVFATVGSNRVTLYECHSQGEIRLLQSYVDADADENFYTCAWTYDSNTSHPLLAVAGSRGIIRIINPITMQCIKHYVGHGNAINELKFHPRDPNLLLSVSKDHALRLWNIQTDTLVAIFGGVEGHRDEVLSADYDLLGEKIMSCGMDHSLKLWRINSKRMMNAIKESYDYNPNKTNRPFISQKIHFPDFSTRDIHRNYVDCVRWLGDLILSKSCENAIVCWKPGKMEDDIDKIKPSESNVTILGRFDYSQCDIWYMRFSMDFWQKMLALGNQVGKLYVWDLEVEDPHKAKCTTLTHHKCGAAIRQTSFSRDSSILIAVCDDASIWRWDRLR
row,IC50,SMILES
1,21.7 nM,"Cc1cc(C)c(CNC(=O)c2cc(Cl)c3c(c2C)OC(C2CCC(N4CC(F)(F)C4)CC2)CO3)c(=O)[nH]1 (single isomer, unassigned) [Compound 57]"
2,35.8 nM,"Cc1cc(C)c(CNC(=O)c2cc(Cl)c3c(c2C)OC(C2CCC(N4CC(F)(F)C4)CC2)CO3)c(=O)[nH]1 (single isomer, unassigned) [Compound 58]"
3,9.6 nM,"Cc1cc(C)c(CNC(=O)c2cc(Cl)c3c(c2C)OC(C2CCC(N4CC5COCC5C4)CC2)CO3)c(=O)[nH]1 (single isomer, unassigned) [Compound 59]"
4,31 nM,"Cc1cc(C)c(CNC(=O)c2cc(Cl)c3c(c2C)OC(C2CCC(N4CCOCC4)CC2)CO3)c(=O)[nH]1 (single isomer, unassigned) [Compound 81]"
5,3.1 nM,COC1CN([C@H]2CC[C@H]([C@H]3COc4c(Cl)cc(C(=O)NCc5c(SC)cc(C)[nH]c5=O)c(C)c4O3)CC2)C1 [Compound 9]
6,2.6 nM,CSc1cc(C)[nH]c(=O)c1CNC(=O)c1cc(Cl)c2c(c1C)O[C@H]([C@H]1CC[C@H](N3CC(OC4CC4)C3)CC1)CO2 [Compound 12]
7,2.1 nM,CSc1cc(C)[nH]c(=O)c1CNC(=O)c1cc(Cl)c2c(c1C)O[C@@H]([C@H]1CC[C@H](N3CC4COCC4C3)CC1)CO2 (stereo partly shown) [Compound 15]
8,10.5 nM,Cc1cc(C)c(CNC(=O)c2cc(Cl)c3c(c2C)OC(C2CCC(N4CC(C(C)(C)O)C4)CC2)CO3)c(=O)[nH]1 (stereo not shown) [Compound 85]
9,20.1 nM,Cc1cc(C)c(CNC(=O)c2cc(Cl)c3c(c2C)O[C@@H](C2CCN(CC4COC4)CC2)CO3)c(=O)[nH]1 [Compound 86]
10,29.5 nM,Cc1cc(C)c(CNC(=O)c2cc(Cl)c3c(c2C)O[C@@H](C2CCN(C4COC4)CC2)CO3)c(=O)[nH]1 [Compound 88]
11,5.7 nM,COc1cc(C)[nH]c(=O)c1CNC(=O)c1cc(Cl)c2c(c1C)O[C@@H]([C@H]1CC[C@H](N3CC(OC)C3)CC1)CO2 [Compound 98]
12,9.4 nM,COc1cc(C)[nH]c(=O)c1CNC(=O)c1cc(Cl)c2c(c1C)O[C@@H]([C@H]1CC[C@@H](N3CC4CC4C3)CC1)CO2 (stereo partly shown) [Compound 113]
13,4.9 nM,COc1cc(C)[nH]c(=O)c1CNC(=O)c1cc(Cl)c2c(c1C)O[C@@H]([C@H]1CC[C@@H](N3CC4C(C3)C4OC)CC1)CO2 (stereo partly shown) [Compound 115]
14,9.5 nM,CSc1cc(C)[nH]c(=O)c1CN(C)C(=O)c1cc(Cl)c2c(c1C)O[C@@H]([C@H]1CC[C@@H](N(C)C)CC1)CO2 [Compound 128]
15,7.3 nM,Cc1cc(C)c(CNC(=O)c2c(C)c3c(c(Cl)c2F)OC[C@H]([C@H]2CC[C@H](N(C)C)CC2)O3)c(=O)[nH]1 [Compound 132]
16,6.6 nM,COc1c(Cl)c2c(c(C)c1C(=O)NCc1c(C)cc(C)[nH]c1=O)O[C@@H]([C@H]1CC[C@@H](N(C)C)CC1)CO2 [Compound 134]

row,SMILES,IC50
1,"CON(C)C1CCC(C2COc3c(Cl)cc(C(=O)NCc4c(C)cc(C)[nH]c4=O)c(C)c3O2)CC1 (single isomer, unassigned) [Compound 78]",11.9 nM

# Biological target: T2, EZH1/SUZ/EED (Homo sapiens, UniProt O75530+Q15022+Q92800)
# T2 construct: purchased BPS 51006
# T2 sequence (Q92800 2-747 limits assumed): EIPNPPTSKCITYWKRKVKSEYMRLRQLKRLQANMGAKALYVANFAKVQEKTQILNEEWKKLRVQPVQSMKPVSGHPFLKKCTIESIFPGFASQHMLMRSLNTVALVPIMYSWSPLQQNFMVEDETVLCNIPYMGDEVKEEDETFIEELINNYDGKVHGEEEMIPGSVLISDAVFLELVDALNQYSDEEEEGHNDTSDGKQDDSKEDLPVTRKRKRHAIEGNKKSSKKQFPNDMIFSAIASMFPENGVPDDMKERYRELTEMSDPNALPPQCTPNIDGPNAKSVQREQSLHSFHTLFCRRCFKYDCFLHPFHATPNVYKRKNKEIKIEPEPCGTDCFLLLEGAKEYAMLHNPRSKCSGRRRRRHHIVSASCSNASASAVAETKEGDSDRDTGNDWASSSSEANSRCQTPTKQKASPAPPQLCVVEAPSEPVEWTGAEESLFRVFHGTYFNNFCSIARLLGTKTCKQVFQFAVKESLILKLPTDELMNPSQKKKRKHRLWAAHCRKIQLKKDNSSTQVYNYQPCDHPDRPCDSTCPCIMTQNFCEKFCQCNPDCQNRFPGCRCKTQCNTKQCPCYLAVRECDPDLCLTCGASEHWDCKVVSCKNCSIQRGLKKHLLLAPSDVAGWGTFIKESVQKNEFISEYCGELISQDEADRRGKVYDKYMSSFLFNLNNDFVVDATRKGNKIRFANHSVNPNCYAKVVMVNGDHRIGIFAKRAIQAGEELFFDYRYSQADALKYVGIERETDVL
# T2 sequence (Q15022 2-739 partner limits assumed): as the sequence (Q15022 2-739 partner limits assumed) above
# T2 sequence (O75530 2-441 partner limits assumed): as the sequence (O75530 2-441 partner limits assumed) above
# Experiment: Inhibitory effect on EZH1 by the MTase-Glo method (Test Example 1)
# Format: biochemical
# Conditions: EZH1/SUZ/EED 25 nM, H3 peptide 10 μM, SAM 3 μM, 30° C. 3 h, read-out: Test Example 1 WT EZH1 IC50
# Description: as §1, §2
row,IC50,SMILES
1,260 nM,"Cc1cc(C)c(CNC(=O)c2cc(Cl)c3c(c2C)OC(C2CCC(N4CC(F)(F)C4)CC2)CO3)c(=O)[nH]1 (single isomer, unassigned) [Compound 57]"
2,2300 nM,"Cc1cc(C)c(CNC(=O)c2cc(Cl)c3c(c2C)OC(C2CCC(N4CC(F)(F)C4)CC2)CO3)c(=O)[nH]1 (single isomer, unassigned) [Compound 58]"
3,7 nM,"Cc1cc(C)c(CNC(=O)c2cc(Cl)c3c(c2C)OC(C2CCC(N4CC5COCC5C4)CC2)CO3)c(=O)[nH]1 (single isomer, unassigned) [Compound 59]"
4,91.2 nM,COc1cc(C)[nH]c(=O)c1CNC(=O)c1cc(Cl)c2c(c1C)O[C@@H]([C@H]1CC[C@@H](N3CC4CC4C3)CC1)CO2 (stereo partly shown) [Compound 113]
5,74.8 nM,COc1cc(C)[nH]c(=O)c1CNC(=O)c1cc(Cl)c2c(c1C)O[C@@H]([C@H]1CC[C@@H](N3CC4C(C3)C4OC)CC1)CO2 (stereo partly shown) [Compound 115]
6,722 nM,Cc1cc(C)c(CNC(=O)c2c(C)c3c(c(Cl)c2F)OC[C@H]([C@H]2CC[C@H](N(C)C)CC2)O3)c(=O)[nH]1 [Compound 132]
7,125 nM,COc1c(Cl)c2c(c(C)c1C(=O)NCc1c(C)cc(C)[nH]c1=O)O[C@@H]([C@H]1CC[C@@H](N(C)C)CC1)CO2 [Compound 134]

# System: H3K27Me3 methylation in Karpas-422 cells
# Experiment: H3K27Me3 cell method, inhibition of H3K27Me3 methylation (Test Example 2)
# Format: cell-based, human
# Conditions: Homo sapiens, KARPAS-422, 72 h, Karpas-422 cells, 3 days incubation, HTRF signal; read-out: Test Example 2 H3K27Me3 inhibition (Karpas-422) IC50
# Description: Karpas-422 (Nanjing Kebai, CBP60629) cells were seeded in a 96-well plate (Corning, 3894) at 15,000 cells per well in culture medium (80% 1640 (Hyclone, SH30809.01)+20% FBS (Corning, 35-081-CV)), and then added with different concentrations of compounds for treatment. The cell growth group without adding compounds is used as a positive control (maximum signal control), and the medium is used as a negative control (minimum signal control), while ensuring that in each reaction well, the final concentration of DMSO was 0.2%. Compounds and cells were incubated for 3 days in a cell culture incubator (37° C., 5% CO2). The 96-well plate was taken out from the cell culture incubator and equilibrated to room temperature, and 25 ul of cell suspension was taken out into a 384-well plate. The CCK8 (Beiyuntian, C0040) detection reagent was added, incubated at 37° C. for 1 h, and […] was detected. The rest of the cells followed the procedure of the kit EPIgeneous H3K27Me3 cellular kit (Cisbio, 62KC3PAE) to carry out experiment, read HTRF signal with BMG PHERAStar. […] By GraphPad Prism 6 with log(inhibitor)vs.response-Variable slope model simulation, the IC50 of the compound on cell activity inhibition was calculated. The fitting equation is: Y=Bottom+(Top−Bottom)/(1+10^((Log IC50−X)*HillSlope)), wherein Y represents the inhibition rate, and X represents the known concentration of the compound after Log.
row,IC50,SMILES
1,> 1000 nM,"Cc1cc(C)c(CNC(=O)c2cc(Cl)c3c(c2C)OC(C2CCC(N4CC(F)(F)C4)CC2)CO3)c(=O)[nH]1 (single isomer, unassigned) [Compound 57]"
2,> 1000 nM,"Cc1cc(C)c(CNC(=O)c2cc(Cl)c3c(c2C)OC(C2CCC(N4CCOCC4)CC2)CO3)c(=O)[nH]1 (single isomer, unassigned) [Compound 81]"
3,14.2 nM,COC1CN([C@H]2CC[C@H]([C@H]3COc4c(Cl)cc(C(=O)NCc5c(SC)cc(C)[nH]c5=O)c(C)c4O3)CC2)C1 [Compound 9]
4,9.4 nM,CSc1cc(C)[nH]c(=O)c1CNC(=O)c1cc(Cl)c2c(c1C)O[C@H]([C@H]1CC[C@H](N3CC(OC4CC4)C3)CC1)CO2 [Compound 12]
5,101 nM,CSc1cc(C)[nH]c(=O)c1CNC(=O)c1cc(Cl)c2c(c1C)O[C@@H]([C@H]1CC[C@H](N3CC4COCC4C3)CC1)CO2 (stereo partly shown) [Compound 15]
6,95.5 nM,Cc1cc(C)c(CNC(=O)c2cc(Cl)c3c(c2C)OC(C2CCC(N4CC(C(C)(C)O)C4)CC2)CO3)c(=O)[nH]1 (stereo not shown) [Compound 85]
7,> 1000 nM,Cc1cc(C)c(CNC(=O)c2cc(Cl)c3c(c2C)O[C@@H](C2CCN(CC4COC4)CC2)CO3)c(=O)[nH]1 [Compound 86]
8,310 nM,Cc1cc(C)c(CNC(=O)c2cc(Cl)c3c(c2C)O[C@@H](C2CCN(C4COC4)CC2)CO3)c(=O)[nH]1 [Compound 88]
9,462 nM,COc1cc(C)[nH]c(=O)c1CNC(=O)c1cc(Cl)c2c(c1C)O[C@@H]([C@H]1CC[C@H](N3CC(OC)C3)CC1)CO2 [Compound 98]
10,43.2 nM,CSc1cc(C)[nH]c(=O)c1CN(C)C(=O)c1cc(Cl)c2c(c1C)O[C@@H]([C@H]1CC[C@@H](N(C)C)CC1)CO2 [Compound 128]

# Same assay, conditions: Homo sapiens, KARPAS-422, 72 h, read-out: Test Example 2 H3K27Me3 inhibition (Karpas-422) IC50(nM)
row,SMILES,IC50
1,"CON(C)C1CCC(C2COc3c(Cl)cc(C(=O)NCc4c(C)cc(C)[nH]c4=O)c(C)c3O2)CC1 (single isomer, unassigned) [Compound 78]",370 nM

# Same assay, conditions: Karpas-422 cells, 3 days incubation, HTRF signal; read-out: Test Example 2 H3K27Me3 inhibition (Karpas-422) IC50
row,IC50,SMILES
1,> 1000 nM,"Cc1cc(C)c(CNC(=O)c2cc(Cl)c3c(c2C)OC(C2CCC(N4CC(F)(F)C4)CC2)CO3)c(=O)[nH]1 (single isomer, unassigned) [Compound 58]"
2,233 nM,"Cc1cc(C)c(CNC(=O)c2cc(Cl)c3c(c2C)OC(C2CCC(N4CC5COCC5C4)CC2)CO3)c(=O)[nH]1 (single isomer, unassigned) [Compound 59]"
